Drawing on article PMC8779355, “In Silico and In Vitro Structure–Activity Relationship of Mastoparan and Its Analogs” (Molecules, 2022), this text covers MIC for seven compounds.

Holding throughout (details): nutrient broth, 1 × 10^5 CFU/mL, peptide 0.1 to 50 μg/mL, O.D.600 at 18 h, MIC = growth inhibition greater than 90%, three independent experiments in triplicate
In one assay the test system is B. subtilis ATCC663. Type of assay: cell-based, Bacillus subtilis. The procedure: (§1) The biological activities of MpVT and its analogs were investigated by assaying antimicrobial activities and by studying the hemolysis activity. The minimal inhibitory concentrations (MIC) of the peptides were determined based on methods described by Anunthawan et al.. […] The MpVT4-7 could not detect antibacterial activity when using a peptide concentration lower than 50 μg/mL. The E. coli strains that were the most susceptible against MpVT peptides were selected for visualizing the bacterial morphology when treated with these peptides using a scanning electron microscope. The normal and abnormal morphologies of bacteria cells were visualized after 60 min treatment with the MpVT peptides (Figure 6).
(§2) The microorganisms; Staphylococcus auerus ATCC 27,853 (DMST 4739), Staphylococcus auerus ATCC 25923, Bacillus subtilis ATCC663, Escherichia coli 0157:H7, Escherichia coli DH5α, and Klebsiella pneumoniae ATCC27736 (DMST4739) were used to determine the MIC of MpVT and its analogs. The bacterial strains were inoculated to enter their log phases, and then the suspension was diluted in nutrient broth. The microorganisms were prepared at a final concentration of 1 × 10^5 CFU/mL. The peptides’ concentrations, ranging from 0.1 to 50 μg/mL, were determined. Serial doubling dilutions of various concentrations of MpVTs were made into a nutrient broth to a final volume of 100 μL in each well of a 96-well plate. A% inhibition = 100 − (O.D.600 at 18 h − O.D.600 at immediate treatment × 100/O.D.600 at […] of control − O.D.600 at 18 h of control − O.D.600 at immediate treatment of control). (1)

Assay [1] deals with K. pneumoniae ATCC27736 (DMST4739). It counts as cell-based, Klebsiella pneumoniae. The procedure: as §1, §2
A further assay concerns S. aureus ATCC25923. Type of assay: cell-based, Staphylococcus auerus. Here is the method: as §1, §2
The test system of the next assay is E. coli 0157:H7. Type of assay: cell-based, Escherichia coli. Here is the method:
as §1, §2

The subject of a further assay is E. coli DH5α. It counts as cell-based, Escherichia coli. Here is the method: as §1, §2
In assay [2] the test system is P. aeruginosa ATCC 27,853 (DMST 4739). Type of assay: cell-based. Here is the method:
as §1, §2

Structures are written as SMILES. Converted amounts (≈) assume the structure as drawn. Residues, ends and D or L forms follow the SMILES beside them.

For `CC[C@H](C)[C@H](N)C(=O)N[C@@H](CC(N)=O)C(=O)N[C@@H](CC(C)C)C(=O)N[C@@H](CCCCN)C(=O)N[C@@H](C)C(=O)N[C@H](C(=O)N[C@@H](C)C(=O)N[C@@H](C)C(=O)N[C@@H](Cc1ccccc1)C(=O)N[C@@H](C)C(=O)N[C@@H](CCCCN)C(=O)N[C@@H](CCCCN)C(=O)N[C@@H](Cc1ccccc1)C(=O)N[C@H](C(=O)O)[C@@H](C)CC)[C@@H](C)CC` [MpVT1] (H-INLKAIAAFAKKFI-OH), the MIC (commonly the smallest concentration in the dilution series that meets the test's criterion for growth inhibition) in the assay on B. subtilis ATCC663 came to 3.125 µg/mL (≈ 2.02 µM); in assay [1], 6.25 µg/mL (≈ 4.04 µM); in the assay on S. aureus ATCC25923, 12.50 µg/mL (≈ 8.08 µM); against E. coli 0157:H7, 6.25 µg/mL (≈ 4.04 µM); against E. coli DH5α it was 0.39 µg/mL (≈ 0.252 µM); in assay [2], 6.25 µg/mL (≈ 4.04 µM).

Regarding `CC[C@H](C)[C@H](N)C(=O)N[C@@H](CC(N)=O)C(=O)N[C@@H](CC(C)C)C(=O)N[C@@H](CCCCN)C(=O)N[C@@H](C)C(=O)N[C@H](C(=O)N[C@@H](C)C(=O)N[C@@H](C)C(=O)N[C@@H](Cc1ccccc1)C(=O)N[C@@H](C)C(=O)N[C@@H](CCCCN)C(=O)N[C@@H](C)C(=O)N[C@@H](CC(C)C)C(=O)N[C@H](C(=O)O)[C@@H](C)CC)[C@@H](C)CC` [MpVT3] (H-INLKAIAAFAKALI-OH), the MIC was found to be 12.50 µg/mL (≈ 8.58 µM) in the assay with B. subtilis ATCC663; 25.00 µg/mL (≈ 17.2 µM) in assay [1]; 50.00 µg/mL (≈ 34.3 µM) against S. aureus ATCC25923; 50.00 µg/mL (≈ 34.3 µM) against E. coli 0157:H7; 0.78 µg/mL (≈ 0.535 µM) in the assay with E. coli DH5α; 6.25 µg/mL (≈ 4.29 µM) in assay [2].

Consider `CC[C@H](C)[C@H](NC(=O)[C@H](Cc1ccccc1)NC(=O)[C@H](CCCCN)NC(=O)[C@H](CCCCN)NC(=O)[C@H](C)NC(=O)[C@H](Cc1ccccc1)NC(=O)[C@H](C)NC(=O)[C@H](C)NC(=O)[C@@H](NC(=O)[C@H](C)NC(=O)[C@@H](N)CCCCN)[C@@H](C)CC)C(=O)O` [MpVT4] (H-KAIAAFAKKFI-OH), for which the MIC is greater than 50.00 µg/mL against B. subtilis ATCC663; greater than 50.00 µg/mL in assay [1]; greater than 50.00 µg/mL against S. aureus ATCC25923; greater than 50.00 µg/mL in the assay on E. coli 0157:H7; 25.00 µg/mL (≈ 20.7 µM) in the assay with E. coli DH5α; 25.0 µg/mL (≈ 20.7 µM) in assay [2].

`CC[C@H](C)[C@H](NC(=O)[C@H](Cc1ccccc1)NC(=O)[C@H](Cc1ccccc1)NC(=O)[C@H](CCCCN)NC(=O)[C@H](CCCCN)NC(=O)[C@H](C)NC(=O)[C@H](Cc1ccccc1)NC(=O)[C@H](C)NC(=O)[C@H](C)NC(=O)[C@@H](NC(=O)[C@H](C)NC(=O)[C@@H](N)CCCCN)[C@@H](C)CC)C(=O)O` [MpVT5] (H-KAIAAFAKKFFI-OH): the minimal inhibitory concentration (MIC) is greater than 50.00 µg/mL in the assay on B. subtilis ATCC663; greater than 50.00 µg/mL in assay [1]; greater than 50.00 µg/mL in the assay with S. aureus ATCC25923; greater than 50.00 µg/mL against E. coli 0157:H7; 6.25 µg/mL (≈ 4.61 µM) in the assay on E. coli DH5α; greater than 50.00 µg/mL in assay [2].

As for `CC[C@H](C)[C@H](NC(=O)[C@H](Cc1ccccc1)NC(=O)[C@H](CC(C)C)NC(=O)[C@H](C)NC(=O)[C@H](CCCCN)NC(=O)[C@H](C)NC(=O)[C@H](Cc1ccccc1)NC(=O)[C@H](C)NC(=O)[C@H](C)NC(=O)[C@@H](NC(=O)[C@H](C)NC(=O)[C@@H](N)CCCCN)[C@@H](C)CC)C(=O)O` [MpVT6] (H-KAIAAFAKALFI-OH), the MIC against B. subtilis ATCC663 is greater than 50.00 µg/mL; in assay [1], greater than 50.00 µg/mL; in the assay on S. aureus ATCC25923, greater than 50.00 µg/mL; in the assay with E. coli 0157:H7 it was greater than 50.00 µg/mL; against E. coli DH5α, 12.50 µg/mL (≈ 9.89 µM); in assay [2], greater than 50.00 µg/mL.

For `CC[C@H](C)[C@H](NC(=O)[C@H](Cc1ccccc1)NC(=O)[C@H](CC(C)C)NC(=O)[C@H](CCCCN)NC(=O)[C@H](C)NC(=O)[C@H](C)NC(=O)[C@H](Cc1ccccc1)NC(=O)[C@H](C)NC(=O)[C@H](C)NC(=O)[C@@H](NC(=O)[C@H](C)NC(=O)[C@@H](N)CCCCN)[C@@H](C)CC)C(=O)O` [MpVT7] (H-KAIAAFAAKLFI-OH), the MIC against B. subtilis ATCC663 was 50.00 µg/mL (≈ 39.6 µM); in assay [1] it was greater than 50.00 µg/mL; against S. aureus ATCC25923 it was greater than 50.00 µg/mL; against E. coli 0157:H7 it was greater than 50.00 µg/mL; with E. coli DH5α, 6.25 µg/mL (≈ 4.95 µM); in assay [2], greater than 50.00 µg/mL.

On to `CC[C@H](C)[C@H](N)C(=O)N[C@@H](CC(N)=O)C(=O)N[C@@H](CC(C)C)C(=O)N[C@@H](CCCCN)C(=O)N[C@@H](C)C(=O)N[C@H](C(=O)N[C@@H](C)C(=O)N[C@@H](C)C(=O)N[C@@H](Cc1ccccc1)C(=O)N[C@@H](C)C(=O)N[C@@H](CCCCN)C(=O)N[C@@H](CCCCN)C(=O)N[C@@H](CC(C)C)C(=O)N[C@H](C(=O)O)[C@@H](C)CC)[C@@H](C)CC` [MpVT] (H-INLKAIAAFAKKLI-OH), for which the minimal inhibitory concentration (MIC) turned out to be 25.00 µg/mL (≈ 16.5 µM) in the assay on B. subtilis ATCC663; 25.00 µg/mL (≈ 16.5 µM) in assay [1]; 50.00 µg/mL (≈ 33 µM) in the assay with S. aureus ATCC25923; 50.00 µg/mL (≈ 33 µM) in the assay on E. coli 0157:H7; 3.125 µg/mL (≈ 2.06 µM) against E. coli DH5α; 25.00 µg/mL (≈ 16.5 µM) in assay [2].
